Data as given in US20160235727A1, “NOVEL PYRROLIDINE DERIVED BETA 3 ADRENERGIC RECEPTOR AGONISTS” (Merck Sharp & Dohme Corp., priority 2013, published 2016).

Biological target: T1, human β3-AR (Homo sapiens, UniProt P13945)
T1 construct: expressed in transfected cells; host or cells: CHO (Chinese hamster ovary) cells, stably transfected
Assay: cAMP functional agonist assay (LANCE TR-FRET) in CHO cells expressing cloned human β3-AR
Assay type: cell-based
Settings: for EC50: CHO cells stably expressing cloned human β3-adrenoceptor, cAMP release, read-out: Human β3-AR Agonism EC50; for Human β3-AR Agonist Activity (%): percent maximum activation relative to isoproterenol; for Fold drop in potency vs. 2-chloropyridine analog: EC50 of comparative example divided by EC50 of corresponding 2-chloropyridine compound

T1 sequence (P13945 whole entry): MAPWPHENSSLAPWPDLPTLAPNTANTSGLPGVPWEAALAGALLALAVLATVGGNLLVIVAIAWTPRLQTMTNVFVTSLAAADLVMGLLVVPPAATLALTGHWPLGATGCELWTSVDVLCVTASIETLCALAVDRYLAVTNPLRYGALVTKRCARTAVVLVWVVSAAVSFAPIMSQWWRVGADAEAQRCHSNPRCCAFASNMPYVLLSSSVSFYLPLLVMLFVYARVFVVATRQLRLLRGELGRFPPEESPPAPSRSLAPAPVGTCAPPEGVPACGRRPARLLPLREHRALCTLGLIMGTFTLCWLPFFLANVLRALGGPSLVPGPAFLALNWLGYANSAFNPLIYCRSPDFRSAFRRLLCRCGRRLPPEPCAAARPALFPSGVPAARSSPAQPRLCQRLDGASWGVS

Compound | EC50 | Human β3-AR Agonist Activity (%) | Fold drop in potency vs. 2-chloropyridine analog
CN(C(=O)c1ccc(C[C@@H]2CC[C@H]([C@H](O)c3ccc(Cl)nc3)N2)cc1)C1CCc2ncccc21 (stereo partly drawn) [Example 24-A, 4-(((2S,5R)-5-((R)-(6-chloropyridin-3-yl)(hydroxy)methyl)pyrrolidin-2-yl)methyl)-N-(6,7-dihydro-5H-cyclopenta[b]pyridin-5-yl)-N-methylbenzamide] | 42 nM | 98% | 
CN(C(=O)c1ccc(C[C@@H]2CC[C@H]([C@H](O)c3ccccc3)N2)cc1)C1CCc2ncccc21 (stereo partly drawn) [Example 24-B, N-(6,7-dihydro-5H-cyclopenta[b]pyridin-5-yl)-4-(((2S,5R)-5-((R)-hydroxy(phenyl)methyl)pyrrolidin-2-yl)methyl)-N-methylbenzamide] | 229 nM | 106% | 5.4 fold
COc1ncccc1CN(C)C(=O)c1ccc(C[C@@H]2CC[C@H]([C@H](O)c3ccc(Cl)nc3)N2)cc1 [Example 25-A, 4-(((2S,5R)-5-((R)-(6-chloropyridin-3-yl)(hydroxy)methyl)pyrrolidin-2-yl)methyl)-N-((2-methoxypyridin-3-yl)methyl)-N-methylbenzamide] | 18 nM | 98% | 
COc1ncccc1CN(C)C(=O)c1ccc(C[C@@H]2CC[C@H]([C@H](O)c3ccccc3)N2)cc1 [Example 25-B, 4-(((2S,5R)-5-((R)-hydroxy(phenyl)methyl)pyrrolidin-2-yl)methyl)-N-((2-methoxypyridin-3-yl)methyl)-N-methylbenzamide] | 109 nM | 96% | 6.0 fold
CN(Cc1cccnc1F)C(=O)c1ccc(C[C@@H]2CC[C@H]([C@H](O)c3ccc(Cl)nc3)N2)cc1 [Example 26-A, 4-(((2S,5R)-5-((R)-(6-chloropyridin-3-yl)(hydroxy)methyl)pyrrolidin-2-yl)methyl)-N-((2-fluoropyridin-3-yl)methyl)-N-methylbenzamide] | 35 nM | 97% | 
CN(Cc1cccnc1F)C(=O)c1ccc(C[C@@H]2CC[C@H]([C@H](O)c3cccc(F)c3)N2)cc1 [Example 26-C, 4-(((2S,5R)-5-((R)-(3-fluorophenyl)(hydroxy)methyl)pyrrolidin-2-yl)methyl)-N-((2-fluoropyridin-3-yl)methyl)-N-methylbenzamide] | 143 nM | 98% | 4.1 fold
CN(Cc1cccnc1F)C(=O)c1ccc(C[C@@H]2CC[C@H]([C@H](O)c3ccc(F)cc3)N2)cc1 [Example 26-F, 4-(((2S,5R)-5-((R)-(4-fluorophenyl)(hydroxy)methyl)pyrrolidin-2-yl)methyl)-N-((2-fluoropyridin-3-yl)methyl)-N-methylbenzamide] | 136 nM | 93% | 3.9 fold
CN(Cc1cccnc1F)C(=O)c1ccc(C[C@@H]2CC[C@H]([C@H](O)c3cccnc3)N2)cc1 [Example 26-H, N-((2-fluoropyridin-3-yl)methyl)-4-(((2S,5R)-5-((R)-hydroxy(pyridin-3-yl)methyl)pyrrolidin-2-yl)methyl)-N-methylbenzamide] | 397 nM | 96% | 11.3 fold
O=C(c1ccc(C[C@@H]2CC[C@H]([C@H](O)c3ccc(Cl)nc3)N2)cc1)N(CCO)Cc1cccnc1F [Example 27-A, 4-(((2S,5R)-5-((R)-(6-chloropyridin-3-yl)(hydroxy)methyl)pyrrolidin-2-yl)methyl)-N-((2-fluoropyridin-3-yl)methyl)-N-(2-hydroxyethyl)benzamide] | 5 nM | 57% | 
O=C(c1ccc(C[C@@H]2CC[C@H]([C@H](O)c3cccnc3)N2)cc1)N(CCO)Cc1cccnc1F [Example 27-H, N-((2-fluoropyridin-3-yl)methyl)-4-(((2S,5R)-5-((R)-hydroxy(pyridin-3-yl)methyl)pyrrolidin-2-yl)methyl)-N-(2-hydroxyethyl)benzamide] | 1390 nM | 78% | 288.6 fold
CN(Cc1ccc(=O)[nH]c1)C(=O)c1ccc(C[C@@H]2CC[C@H]([C@H](O)c3ccc(Cl)nc3)N2)cc1 [Example 28-A, 4-(((2S,5R)-5-((R)-(6-chloropyridin-3-yl)(hydroxy)methyl)pyrrolidin-2-yl)methyl)-N-methyl-N-((6-oxo-1,6-dihydropyridin-3-yl)methyl)benzamide] | 175 nM | 87% | 
CN(Cc1ccc(=O)[nH]c1)C(=O)c1ccc(C[C@@H]2CC[C@H]([C@H](O)c3cccc(F)c3)N2)cc1 [Example 28-C, 4-(((2S,5R)-5-((R)-(3-fluorophenyl)(hydroxy)methyl)pyrrolidin-2-yl)methyl)-N-methyl-N-((6-oxo-1,6-dihydropyridin-3-yl)methyl)benzamide] | 816 nM | 78% | 4.7 fold
CN(Cc1ccc(=O)[nH]c1)C(=O)c1ccc(C[C@@H]2CC[C@H]([C@H](O)c3ccc(F)cc3)N2)cc1 [Example 28-F, 4-(((2S,5R)-5-((R)-(4-fluorophenyl)(hydroxy)methyl)pyrrolidin-2-yl)methyl)-N-methyl-N-((6-oxo-1,6-dihydropyridin-3-yl)methyl)benzamide] | 732 nM | 88% | 4.2 fold
COc1ccc(CN(C)C(=O)c2ccc(C[C@@H]3CC[C@H]([C@H](O)c4ccc(Cl)nc4)N3)cc2)cn1 [Example 29-A, 4-(((2S,5R)-5-((R)-(6-chloropyridin-3-yl)(hydroxy)methyl)pyrrolidin-2-yl)methyl)-N-((6-methoxypyridin-3-yl)methyl)-N-methylbenzamide] | 17 nM | 94% | 
COc1ccc(CN(C)C(=O)c2ccc(C[C@@H]3CC[C@H]([C@H](O)c4ccccc4)N3)cc2)cn1 [Example 29-B, 4-(((2S,5R)-5-((R)-hydroxy(phenyl)methyl)pyrrolidin-2-yl)methyl)-N-((6-methoxypyridin-3-yl)methyl)-N-methylbenzamide] | 86 nM | 99% | 5.1 fold
CN(Cc1ccc(Cl)nc1)C(=O)c1ccc(C[C@@H]2CC[C@H]([C@H](O)c3ccc(Cl)nc3)N2)cc1 [Example 30-A, 4-(((2S,5R)-5-((R)-(6-chloropyridin-3-yl)(hydroxy)methyl)pyrrolidin-2-yl)methyl)-N-((6-chloropyridin-3-yl)methyl)-N-methylbenzamide] | 3 nM | 99% | 
CN(Cc1ccc(Cl)nc1)C(=O)c1ccc(C[C@@H]2CC[C@H]([C@H](O)c3ccccc3)N2)cc1 [Example 30-B, N-((6-chloropyridin-3-yl)methyl)-4-(((2S,5R)-5-((R)-hydroxy(phenyl)methyl)pyrrolidin-2-yl)methyl)-N-methylbenzamide] | 28 nM | 100% | 8.9 fold
CN(Cc1ccc(Cl)nc1)C(=O)c1ccc(C[C@@H]2CC[C@H]([C@H](O)c3ccc(F)cc3)N2)cc1 [Example 30-F, N-((6-chloropyridin-3-yl)methyl)-4-(((2S,5R)-5-((R)-(4-fluorophenyl)(hydroxy)methyl)pyrrolidin-2-yl)methyl)-N-methylbenzamide] | 78 nM | 101% | 24.4 fold
CC(O)c1cncc(CN(C)C(=O)c2ccc(C[C@@H]3CC[C@H]([C@H](O)c4ccc(Cl)nc4)N3)cc2)c1 (stereo partly drawn) [Example 31-A, (((2S,5R)-5-((R)-(6-chloropyridin-3-yl)(hydroxy)methyl)pyrrolidin-2-yl)methyl)-N-((5-(1-hydroxyethyl)pyridin-3-yl)methyl)-N-methylbenzamide] | 7 nM | 96% | 
CC(O)c1cncc(CN(C)C(=O)c2ccc(C[C@@H]3CC[C@H]([C@H](O)c4ccccc4)N3)cc2)c1 (stereo partly drawn) [Example 31-B, 4-(((2S,5R)-5-((R)-hydroxy(phenyl)methyl)pyrrolidin-2-yl)methyl)-N-((5-(1-hydroxyethyl)pyridin-3-yl)methyl)-N-methylbenzamide] | 16 nM | 104% | 2.3 fold
CN(Cc1cncc(C(C)(C)O)c1)C(=O)c1ccc(C[C@@H]2CC[C@H]([C@H](O)c3ccc(Cl)nc3)N2)cc1 [Example 32-A, 4-(((2S,5R)-5-((R)-(6-chloropyridin-3-yl)(hydroxy)methyl)pyrrolidin-2-yl)methyl)-N-((5-(2-hydroxypropan-2-yl)pyridin-3-yl)methyl)-N-methylbenzamide] | 13 nM | 94% | 
CN(Cc1cncc(C(C)(C)O)c1)C(=O)c1ccc(C[C@@H]2CC[C@H]([C@H](O)c3ccccc3)N2)cc1 [Example 32-B, 4-(((2S,5R)-5-((R)-hydroxy(phenyl)methyl)pyrrolidin-2-yl)methyl)-N-((5-(2-hydroxypropan-2-yl)pyridin-3-yl)methyl)-N-methylbenzamide] | 22 nM | 109% | 1.8 fold
CN(Cc1cncc(C(C)(C)O)c1)C(=O)c1ccc(C[C@@H]2CC[C@H]([C@H](O)c3ccc(Cl)cc3)N2)cc1 [Example 32-G, 4-(((2S,5R)-5-((R)-(4-chlorophenyl)(hydroxy)methyl)pyrrolidin-2-yl)methyl)-N-((5-(2-hydroxypropan-2-yl)pyridin-3-yl)methyl)-N-methylbenzamide] | 16 nM | 98% | 1.2 fold
CN(Cc1cncc(C(=O)O)c1)C(=O)c1ccc(C[C@@H]2CC[C@H]([C@H](O)c3ccc(Cl)nc3)N2)cc1 [Example 33-A, 5-((4-(((2S,5R)-5-((R)-(6-chloropyridin-3-yl)(hydroxy)methyl)pyrrolidin-2-yl)methyl)-N-methylbenzamido)methyl)nicotinic acid] | 44 nM | 101% | 
